Reference: patent US20240025919A1, “AZA-TETRACYCLIC OXAZEPINE COMPOUNDS AND USES THEREOF” (Genentech, Inc., priority 2022, published 2024)

What was measured:
[1] = biological target: KRAS G12D (Homo sapiens (Human), UniProt P01116, G12D); assay: KRAS G12D LoEnz Biochemical Assay, BODIPY-GDP Exchange TR-FRET (SOS1-mediated nucleotide exchange); conditions: read-out: KRas (G12D) GDP HTRF IC50
[2] = biological target: KRAS WT (Homo sapiens (Human), UniProt P01116); assay: KRAS WT Biochemical Assay, BODIPY-GDP Exchange TR-FRET (Example 501; 3 nM KRAS WT, 3 nM SOS1, 60-minute incubation); conditions: read-out: KRas HTRF IC50
Summary of the method: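 SOS1-mediated exchange assay: 3 nM biotin-KRAS WT with terbium-streptavidin, started with 3 nM SOS1 and 300 nM BODIPY-GDP, HEPES pH 7.5 with MgCl2. TR-FRET (520/490 nm) read after 60 min; normalized to DMSO and full-inhibition control, IC50 from 4-parameter Hill fit.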

KRAS WT, sequence (P01116-2 other isoform, or with tags, fused parts or gaps): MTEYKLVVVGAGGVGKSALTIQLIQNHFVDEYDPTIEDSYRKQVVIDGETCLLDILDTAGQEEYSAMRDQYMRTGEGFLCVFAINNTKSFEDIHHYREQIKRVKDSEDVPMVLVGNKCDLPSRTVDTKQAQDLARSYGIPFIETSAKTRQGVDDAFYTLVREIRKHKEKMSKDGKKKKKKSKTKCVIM
KRAS G12D, sequence (P01116-2 other isoform, or with tags, fused parts or gaps G12D): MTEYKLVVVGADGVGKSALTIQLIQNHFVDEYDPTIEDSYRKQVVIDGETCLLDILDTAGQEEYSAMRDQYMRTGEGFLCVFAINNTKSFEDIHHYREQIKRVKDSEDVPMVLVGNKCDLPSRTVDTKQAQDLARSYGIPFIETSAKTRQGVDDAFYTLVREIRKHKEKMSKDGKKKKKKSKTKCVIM

SMILES	IC50 [1]	IC50 [2]
Cc1nc(N)cc(-c2nc3c4c(nc(OC[C@@]56CCCN5C[C@H](F)C6)nc4c2F)N2C[C@H]4CC[C@H](N4)[C@H]2[C@H](C)O3)c1C(F)(F)F [Compound 215, 4-((5S,5aS,6S,9R)-1-Fluoro-12-(((2R,7aS)-2-fluorotetrahydro-1H-pyrrolizin-7°(5H)-yl)methoxy)-5-methyl-5°,6,7,8,9,10-hexahydro-5H-4-oxa-3,10°,11,13,14-pentaaza-6,9-methanonaphtho[1,8-ab]heptalen-2-yl)-6-methyl-5-(trifluoromethyl)pyridin-2-amine]	0.21 nM	7.1 nM
Cc1nc(N)cc(-c2nc3c4c(nc(OC[C@]56CCCN5CC(F)(F)C6)nc4c2F)N2C[C@H]4CC[C@H](N4)[C@H]2[C@H](C)O3)c1C(F)(F)F [Compound 217, 4-((5S,5aS,6S,9R)-12-(((R)-2,2-difluorotetrahydro-1H-pyrrolizin-7a(5H)-yl)methoxy)-1-fluoro-5-methyl-5a,6,7,8,9,10-hexahydro-5H-4-oxa-3,10a,11,13,14-pentaaza-6,9-methanonaphtho[1,8-ab]heptalen-2-yl)-6-methyl-5-(trifluoromethyl)pyridin-2-amine]	3.39 nM	242 nM
Cc1nc(N)cc(-c2nc3c4c(nc(OCC5(CN6C[C@@H](C)O[C@@H](C)C6)CC5)nc4c2F)N2C[C@H]4CC[C@H](N4)[C@H]2[C@H](C)O3)c1C(F)(F)F [Compound 218, 4-((5S,5aS,6S,9R)-12-((1-(((2R,6S)-2,6-Dimethylmorpholino)methyl)cyclopropyl)methoxy)-1-fluoro-5-methyl-5a,6,7,8,9,10-hexahydro-5H-4-oxa-3,10a,11,13,14-pentaaza-6,9-methanonaphtho[1,8-ab]heptalen-2-yl)-6-methyl-5-(trifluoromethyl)pyridin-2-amine]	0.29 nM	14.1 nM
Cc1nc(N)c(F)c(-c2nc3c4c(nc(OCC5(CN6CCOCC6)CC5)nc4c2F)N2C[C@H]4CC[C@H](N4)[C@H]2[C@H](C)O3)c1C(F)(F)F [Compound 219, 3-Fluoro-4-((5S,5aS,6S,9R)-1-fluoro-5-methyl-12-((1-(morpholinomethyl)cyclopropyl)methoxy)-5a,6,7,8,9,10-hexahydro-5H-4-oxa-3,10a,11,13,14-pentaaza-6,9-methanonaphtho[1,8-ab]heptalen-2-yl)-6-methyl-5-(trifluoromethyl)pyridin-2-amine]	0.46 nM	47.3 nM
Cc1nc(N)c(F)c(-c2nc3c4c(nc(OCC56CCN5CC(F)(F)C6)nc4c2F)N2C[C@H]4CC[C@H](N4)[C@H]2[C@H](C)O3)c1C(F)(F)F (stereo partly drawn) [Compound 220, 4-((5S,5aS,6S,9R)-12-((3,3-Difluoro-1-azabicyclo[3.2.0]heptan-5-yl)methoxy)-1-fluoro-5-methyl-5a,6,7,8,9,10-hexahydro-5H-4-oxa-3,10a,11,13,14-pentaaza-6,9-methanonaphtho[1,8-ab]heptalene-2-yl)-3-fluoro-6-methyl-5-(trifluoromethyl)pyridin-2-amine]	0.92 nM	149 nM
Cc1nc(N)c(F)c(-c2nc3c4c(nc(OCC5(CN6C[C@@H]7C[C@H]6CO7)CC5)nc4c2F)N2C[C@H]4CC[C@H](N4)[C@H]2[C@H](C)O3)c1C(F)(F)F [Compound 222, 4-((5S,5aS,6S,9R)-12-((1-(((1S,4S)-2-Oxa-5-azabicyclo[2.2.1]heptan-5-yl)methyl)cyclopropyl)methoxy)-1-fluoro-5-methyl-5a,6,7,8,9,10-hexahydro-5H-4-oxa-3,10a,11,13,14-pentaaza-6,9-methanonaphtho[1,8-ab]heptalene-2-yl)-3-fluoro-6-methyl-5-(trifluoromethyl)pyridin-2-amine]	3.39 nM	45.7 nM
Cc1nc(N)c(F)c(-c2nc3c4c(nc(OCC5(CN6C[C@H]7C[C@@H]6CO7)CC5)nc4c2F)N2C[C@H]4CC[C@H](N4)[C@H]2[C@H](C)O3)c1C(F)(F)F [Compound 223, 4-((5S,5aS,6S,9R)-12-((1-(((1R,4R)-2-Oxa-5-azabicyclo[2.2.1]heptan-5-yl)methyl)cyclopropyl)methoxy)-1-fluoro-5-methyl-5a,6,7,8,9,10-hexahydro-5H-4-oxa-3,10a,11,13,14-pentaaza-6,9-methanonaphtho[1,8-ab]heptalene-2-yl)-3-fluoro-6-methyl-5-(trifluoromethyl)pyridin-2-amine]	3.39 nM	51.3 nM
Cc1c(F)c(N)c(F)c(-c2nc3c4c(nc(OCC5(CN6CCOCC6)CC5)nc4c2F)N2C[C@H]4CC[C@H](N4)[C@H]2[C@H](C)O3)c1C(F)(F)F [Compound 224, 2,6-Difluoro-3-((5S,5aS,6S,9R)-1-fluoro-5-methyl-12-((1-(morpholinomethyl)cyclopropyl)methoxy)-5a,6,7,8,9,10-hexahydro-5H-4-oxa-3,10a,11,13,14-pentaaza-6,9-methanonaphtho[1,8-ab]heptalen-2-yl)-5-methyl-4-(trifluoromethyl)aniline]	0.18 nM	12 nM
Cc1c(F)c(N)c(F)c(-c2nc3c4c(nc(OC[C@@]56CCCN5CC5(CC5(F)F)C6)nc4c2F)N2C[C@H]4CC[C@H](N4)[C@H]2[C@H](C)O3)c1C(F)(F)F (stereo partly drawn) [Compound 225, 3-((5S,5aS,6S,9R)-12-(((7a′S)-2,2-Difluorodihydro-1′H,3′H-spiro[cyclopropane-1,2′-pyrrolizin]-7a′(5′H)-yl)methoxy)-1-fluoro-5-methyl-5a,6,7,8,9,10-hexahydro-5H-4-oxa-3,10a,11,13,14-pentaaza[6,9]methanonaphtho[1,8-ab]heptalene-2-yl)-2,6-difluoro-5-methyl-4-(trifluoromethyl)aniline]	0.25 nM	4.2 nM
Cc1cc(N)c(F)c(-c2nc3c4c(nc(OCC5(CN6CCOCC6)CC5)nc4c2F)N2C[C@H]4CC[C@H](N4)[C@H]2[C@H](C)O3)c1C(F)(F)F [Compound 226, 2-Fluoro-3-((5S,5aS,6S,9R)-1-fluoro-5-methyl-12-((1-(morpholinomethyl)cyclopropyl)methoxy)-5a,6,7,8,9,10-hexahydro-5H-4-oxa-3,10a,11,13,14-pentaaza-6,9-methanonaphtho[1,8-ab]heptalene-2-yl)-5-methyl-4-(trifluoromethyl)aniline]	0.4 nM	8.11 nM
Cc1cc(N)c(F)c(-c2nc3c4c(nc(OC[C@@]56CCCN5CC5(CC5(F)F)C6)nc4c2F)N2C[C@H]4CC[C@H](N4)[C@H]2[C@H](C)O3)c1C(F)(F)F (stereo partly drawn) [Compound 227, 3-((5S,5aS,6S,9R)-12-(((7a′S)-2,2-Difluorodihydro-1′H,3′H-spiro[cyclopropane-1,2′-pyrrolizin]-7a′(5′H)-yl)methoxy)-1-fluoro-5-methyl-5a,6,7,8,9,10-hexahydro-5H-4-oxa-3,10a,11,13,14-pentaaza[6,9]methanonaphtho[1,8-ab]heptalene-2-yl)-2-fluoro-5-methyl-4-(trifluoromethyl)aniline]	0.21 nM	0.938 nM
Cc1c(F)c(N)c(F)c(-c2nc3c4c(nc(OC[C@@H]5C[C@@H](F)CN5C)nc4c2F)N2C[C@H]4CC[C@H](N4)[C@H]2[C@H](C)O3)c1C(F)(F)F [Compound 228, 2,6-Difluoro-3-((5S,5aS,6S,9R)-1-fluoro-12-(((2S,4R)-4-fluoro-1-methylpyrrolidin-2-yl)methoxy)-5-methyl-5a,6,7,8,9,10-hexahydro-5H-4-oxa-3,10a,11,13,14-pentaaza-6,9-methanonaphtho[1,8-ab]heptalen-2-yl)-5-methyl-4-(trifluoromethyl)aniline]	370 nM	4880 nM
Cc1c(F)c(N)c(F)c(-c2nc3c4c(nc(OC[C@@]56CCCN5C/C(=C\F)C6)nc4c2F)N2C[C@H]4CC[C@H](N4)[C@H]2[C@H](C)O3)c1C(F)(F)F [Compound 229, 2,6-Difluoro-3-((5S,5aS,6S,9R)-1-fluoro-12-(((S,Z)-2-(fluoromethylene)tetrahydro-1H-pyrrolizin-7a(5H)-yl)methoxy)-5-methyl-5a,6,7,8,9,10-hexahydro-5H-4-oxa-3,10a,11,13,14-pentaaza-6,9-methanonaphtho[1,8-ab]heptalene-2-yl)-5-methyl-4-(trifluoromethyl)aniline]	0.36 nM	12 nM
Cc1cc(N)cc(-c2nc3c4c(nc(OC[C@@H]5CC[C@H]6COCCN65)nc4c2F)N2C[C@H]4CC[C@H](N4)[C@H]2[C@H](C)O3)c1CC(F)F [Compound 230, 4-(2,2-Difluoroethyl)-3-((5S,5aS,6S,9R)-1-fluoro-12-(((6S,8aS)-hexahydro-1H-pyrrolo[2,1-c][1,4]oxazin-6-yl)methoxy)-5-methyl-5a,6,7,8,9,10-hexahydro-5H-4-oxa-3,10a,11,13,14-pentaaza-6,9-methanonaphtho[1,8-ab]heptalen-2-yl)-5-methylaniline]	1.13 nM	213 nM
Cc1cc(N)c(F)c(-c2nc3c4c(nc(OC[C@@H]5CC[C@H]6COCCN65)nc4c2F)N2C[C@H]4CC[C@H](N4)[C@H]2[C@H](C)O3)c1CC(F)F [Compound 231, 4-(2,2-Difluoroethyl)-2-fluoro-3-((5S,5aS,6S,9R)-1-fluoro-12-(((6S,8aS)-hexahydro-1H-pyrrolo[2,1-c][1,4]oxazin-6-yl)methoxy)-5-methyl-5a,6,7,8,9,10-hexahydro-5H-4-oxa-3,10a,11,13,14-pentaaza-6,9-methanonaphtho[1,8-ab]heptalen-2-yl)-5-methylaniline]	4.6 nM	1240 nM
CCc1c(F)c(N)cc(-c2nc3c4c(nc(OC[C@@H]5CC[C@H]6COCCN65)nc4c2F)N2C[C@H]4CC[C@H](N4)[C@H]2[C@H](C)O3)c1C(F)(F)F [Compound 232, 3-Ethyl-2-fluoro-5-((5S,5aS,6S,9R)-1-fluoro-12-(((6S,8aS)-hexahydro-1H-pyrrolo[2,1-c][1,4]oxazin-6-yl)methoxy)-5-methyl-5a,6,7,8,9,10-hexahydro-5H-4-oxa-3,10a,11,13,14-pentaaza-6,9-methanonaphtho[1,8-ab]heptalen-2-yl)-4-(trifluoromethyl)aniline]	2.86 nM	277 nM
